Source: article PMC11945486, “TAS1R2/TAS1R3 Single-Nucleotide Polymorphisms Affect Sweet Taste Receptor Activation by Sweeteners: The SWEET Project” (Nutrients, 2025)
Where two headings read alike, the source gives them in different places. No end group written: not given here.

B1: thaumatin (protein)
chain: ATFEIVNRCSYTVWAAASKGDAALDAGGRQLNSGESWTINVEPGTKGGKIWARTDCYFDDSGSGICKTGDCGGLLRCKRFGRPPTTLAEFSLNQYGKDYIDISNIKGFNVPMDFSPTTRGCRGVRCAADIVGQCPAKLKAPGGGCNDACTVFQTSEYCCTTGKCGPTEYSRFFKRLCPDAFSYVLDKPTTVTCPGSSNYRVTFCPTA
modifications: Eight disulfides
notes: sweet-tasting plant protein, E957

Target: T1, human TAS1R2-WT/TAS1R3-S446N (Homo sapiens, UniProt Q7RTX0+Q8TE23, S446N)
T1 construct: expressed in transfected cells; host or cells: HEK293T stably expressing Gα16gust44
T1 sequence (Q8TE23 20-839): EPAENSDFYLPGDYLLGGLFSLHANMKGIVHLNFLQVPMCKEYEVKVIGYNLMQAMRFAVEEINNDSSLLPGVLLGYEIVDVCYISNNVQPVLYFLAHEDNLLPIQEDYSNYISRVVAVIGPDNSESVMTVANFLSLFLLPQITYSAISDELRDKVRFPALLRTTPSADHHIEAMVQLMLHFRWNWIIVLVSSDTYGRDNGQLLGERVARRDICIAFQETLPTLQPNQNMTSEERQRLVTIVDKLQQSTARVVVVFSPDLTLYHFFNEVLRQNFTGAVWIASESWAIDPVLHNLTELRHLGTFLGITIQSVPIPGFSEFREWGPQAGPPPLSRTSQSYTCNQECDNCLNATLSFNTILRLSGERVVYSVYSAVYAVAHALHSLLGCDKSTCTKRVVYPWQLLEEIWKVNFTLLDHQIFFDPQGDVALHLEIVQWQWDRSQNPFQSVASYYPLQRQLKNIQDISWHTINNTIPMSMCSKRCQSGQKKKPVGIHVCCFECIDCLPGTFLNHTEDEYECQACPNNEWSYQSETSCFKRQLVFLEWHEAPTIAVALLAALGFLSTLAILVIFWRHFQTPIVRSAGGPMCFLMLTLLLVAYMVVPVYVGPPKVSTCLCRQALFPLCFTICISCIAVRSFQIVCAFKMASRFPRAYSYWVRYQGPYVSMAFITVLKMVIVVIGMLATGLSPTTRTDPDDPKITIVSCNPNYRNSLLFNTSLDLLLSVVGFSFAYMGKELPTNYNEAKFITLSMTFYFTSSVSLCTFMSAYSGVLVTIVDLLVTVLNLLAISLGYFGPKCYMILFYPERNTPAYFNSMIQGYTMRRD
T1 sequence (Q7RTX0 21-852 S446N): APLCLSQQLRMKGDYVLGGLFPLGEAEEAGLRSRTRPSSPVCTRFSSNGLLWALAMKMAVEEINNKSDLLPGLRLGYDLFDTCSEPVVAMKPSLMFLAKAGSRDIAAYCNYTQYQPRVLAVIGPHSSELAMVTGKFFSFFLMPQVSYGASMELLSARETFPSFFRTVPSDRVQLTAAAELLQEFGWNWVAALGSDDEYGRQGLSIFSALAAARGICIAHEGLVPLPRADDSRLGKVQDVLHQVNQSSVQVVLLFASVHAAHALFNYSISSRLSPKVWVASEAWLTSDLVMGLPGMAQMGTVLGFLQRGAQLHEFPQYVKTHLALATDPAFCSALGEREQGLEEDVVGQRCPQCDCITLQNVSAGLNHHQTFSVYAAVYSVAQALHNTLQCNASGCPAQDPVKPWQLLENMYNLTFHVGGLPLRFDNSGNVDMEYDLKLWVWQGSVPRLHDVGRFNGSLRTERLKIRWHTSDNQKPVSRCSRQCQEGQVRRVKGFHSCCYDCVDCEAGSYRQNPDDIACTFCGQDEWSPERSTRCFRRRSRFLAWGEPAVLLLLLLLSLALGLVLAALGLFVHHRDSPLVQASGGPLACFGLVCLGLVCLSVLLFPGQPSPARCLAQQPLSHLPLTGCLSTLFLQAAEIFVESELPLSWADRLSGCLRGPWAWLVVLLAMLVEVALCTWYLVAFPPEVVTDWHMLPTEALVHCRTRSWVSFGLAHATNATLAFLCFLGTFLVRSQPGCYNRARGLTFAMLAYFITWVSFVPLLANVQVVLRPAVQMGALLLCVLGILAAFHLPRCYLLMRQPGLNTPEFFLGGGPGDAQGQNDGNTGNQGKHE
Assay: Calcium mobilisation assay, TAS1R2-WT with TAS1R3 variant S446N
Format: cell-based
Conditions: for Max ΔF/F0: maximal signal amplitude
Description: The coding sequences for TAS1R2 and TAS1R3 were commercially synthesised, and the human codon was optimised for expression in human cells. The coding sequences of human TAS1R2 and TAS1R3 were subcloned and inserted into the mammalian expression vectors pcDNA6/myc-HisA and pcDNA4/myc-HisA (Invitrogen; Thermo Fisher Scientific; Illkirch, France) between the EcoRI and NotI restriction sites, generating the plasmids pcDNA6-TAS1R2 and pcDNA4-TAS1R3, respectively. To increase protein expression in mammalian cells, an upstream start codon was used, which was a sequence called MAX, corresponding to the QBI SP163 element also described in pcDNA4-HisMax (Invitrogen; Thermo Fisher Scientific; Illkirch, France). To measure the expression level of the receptor by immunohistochemistry, we used the FLAG sequence ([…]) in the C-terminal position, which encodes the FLAG tag epitope. SNP variants of TAS1R2 and TAS1R3 were constructed based on […], respectively, using site-directed mutagenesis (Genewiz; Leipzig, Germany).
The HEK293T cells were kindly provided by Jay P. Slack (Givaudan Flavors Corporation; Cincinnati, OH, USA). HEK293T cells stably transfected with Gα16gust44 [43, 67] were seeded in poly-D-lysine-coated clear-bottom black 96-well plates (0.35 × 10^5 cells/well) in high-glucose DMEM supplemented with 2 mM GlutaMAX, 10% dialysed foetal bovine serum with penicillin/streptomycin and G418 (400 μg/mL) at 37 °C and 6.3% CO2 in a humidified atmosphere as previously reported. […] As a negative control, HEK293T cells were mock-transfected with the empty expression vector. After a further 24 h of incubation, the HEK293T cells were washed with C1 buffer (130 mM NaCl, 5 mM KCl, 10 mM HEPES pH 7.4 and 2 mM CaCl2). The 96-well plates containing the cells were then stimulated with sweet-tasting compounds. […] Different concentration ranges were tested depending on the sweet compound injected. The Ca^2+ changes were expressed as fractional changes in fluorescent light intensity: ΔF/F = (F − F0)/F0, where F was the fluorescent light intensity at each point, and F0 was the value of emitted fluorescent light prior to stimulus application. To calculate dose–response relationships, the changes in fluorescence upon stimulus application were averaged, mock-subtracted and baseline-corrected. The dose–response data obtained were adjusted using a 4-parameter logistic equation. The half-maximal effective concentrations (EC50 values) and maximal signal amplitudes were calculated using SigmaPlot software (version 15.0) (Systat Software; San Jose, CA, USA).
For in vitro calcium mobilisation assay performed on hTAS1R2-SNPs, hTAS1R3-SNPs and mTAS1R3-I60T, 6 to 7 concentrations were tested for each sweet compound, plus buffer alone. All concentration–receptor combinations were measured in duplicate, and each experiment was repeated at least 4 times (8 wells/concentration). Results were expressed for each concentration as ΔF/F mean ± SEM and represented as dose–response curves.

| Molecule | R1 = Variant EC50/WT EC50 | Max ΔF/F0 | EC50 (read-out: EC50) | EC50 (brazzein) |
| --- | --- | --- | --- | --- |
| OC[C@H]1O[C@H](O[C@]2(CCl)O[C@H](CCl)[C@@H](O)[C@@H]2O)[C@H](O)[C@@H](O)[C@H]1Cl [Sucralose] | 1.4 | 0.68 ± 0.02 | 155 ± 11 µM |  |
| O=S(=O)(O)NC1CCCCC1 [Cyclamate, cyclamate] |  |  | 1480 ± 45 µM |  |
| C=C(C)[C@@H]1CC=C(/C=N/O)CC1 [Perillartine, perillartine] | 1.1 | 1.42 ± 0.26 | 15.3 ± 8.6 µM |  |
| C=C1C[C@@]23CC[C@H]4[C@@](C)(CCC[C@@]4(C)C(=O)O[C@@H]4O[C@H](CO)[C@@H](O)[C@H](O[C@@H]5O[C@H](CO)[C@@H](O)[C@H](O)[C@H]5O)[C@H]4O[C@@H]4O[C@H](CO)[C@@H](O)[C@H](O)[C@H]4O)[C@@H]2CC[C@]1(O[C@@H]1O[C@H](CO)[C@@H](O)[C@H](O[C@@H]2O[C@H](CO)[C@@H](O)[C@H](O)[C@H]2O)[C@H]1O[C@@H]1O[C@H](CO)[C@@H](O)[C@H](O)[C@H]1O)C3 [Rebaudioside M, rebaudioside M] | 0.9 | 0.64 ± 0.03 | 36.9 ± 3.6 µM |  |
| COc1ccc(CCC(=O)c2c(O)cc(O[C@@H]3O[C@H](CO)[C@@H](O)[C@H](O)[C@H]3O[C@@H]3O[C@@H](C)[C@H](O)[C@@H](O)[C@H]3O)cc2O)cc1O [NHDC, neohesperidin dihydrochalcone] | 1.0 | 1.07 ± 0.06 | 49.4 ± 8.6 µM |  |
| thaumatin | 0.9 | 0.70 ± 0.04 |  |  |
| CC1=CC(=O)NS(=O)(=O)O1 [Acesulfame K, acesulfame K] | 0.8 | 0.19 ± 0.01 | 487 ± 78 µM |  |
| brazzein (QDKCKKVYENYPVSKCQLANQCNYDCKLDKHARSGECFYDEKRNLQCICDYCEY; ends and bridges not checked; cysteine pairing not given here; UniProt P56552 1-54, looked up) [sweet-tasting protein obtained by recombinant production using the yeast Pichia pastoris] | 1.1 | 0.98 ± 0.03 |  | 120.8 ± 9.3 µg/mL |
| C[C@H](CC[C@@H](O[C@@H]1O[C@H](CO[C@@H]2O[C@H](CO)[C@@H](O)[C@H](O)[C@H]2O)[C@@H](O)[C@H](O)[C@H]1O[C@@H]1O[C@H](CO)[C@@H](O)[C@H](O)[C@H]1O)C(C)(C)O)[C@H]1CC[C@@]2(C)[C@@H]3CC=C4[C@@H](CC[C@H](O[C@@H]5O[C@H](CO[C@@H]6O[C@H](CO)[C@@H](O)[C@H](O)[C@H]6O)[C@@H](O)[C@H](O)[C@H]5O)C4(C)C)[C@]3(C)[C@H](O)C[C@]12C [Mogroside V, mogroside V] | 1.5 | 0.86 ± 0.01 | 47.7 ± 1.5 µM |  |
| COC(=O)[C@H](Cc1ccccc1)NC(=O)[C@H](CC(=O)O)NCCC(C)(C)C [Neotame] | 1.0 | 0.63 ± 0.02 | 1.22 ± 0.1 µM |  |
| B1 |  |  | 9.8 ± 1.1 µM |  |
